The results in this text go back to PMC7321408, “One-Pot Multicomponent Synthesis and Bioevaluation of Tetrahydroquinoline Derivatives as Potential Antioxidants, α-Amylase Enzyme Inhibitors, Anti-Cancerous and Anti-Inflammatory Agents” (Molecules, 2020).

The structures appear in SMILES notation. Values after ≈ are worked out from the molar mass of the structure shown.

One data set deals with α-amylase enzyme. The data set can be described thus: α-Amylase enzyme inhibitory assay. The format is biochemical. Conditions: 200 µg/mL. As for the experimental part:
An in vitro α-amylase enzyme inhibitory assay was performed by the standard protocol. Four milligrams per 1 mL of sample was prepared in DMSO. In each well of a 96-well plate, synthetic compounds were added to a final concentration of 200 µg/mL. To this, 15 μL phosphate buffer, […] α-amylase enzyme and 40 μL starch solution were added stepwise. The microplate was incubated at 50 °C for 30 min. […] The formula used to calculate the percent enzyme inhibition is:% Enzyme inhibition = [(As − An) ÷ (Ab − An] × 100
As = sample’s absorbance; An = negative’s absorbance; Ab = blank’s absorbance

Data set [1] concerns carrageenan-induced paw edema. The data set can be described thus: Carrageenan-induced paw edema (in vivo anti-inflammatory activity). The arrangement: species or system BALB/C albino mice; unit not given beside the values. Conditions: 10 mg/kg, mice, n = 5. As to the method: At 7–8 weeks old, male BALB/C albino mice (29–35 g), were purchased from The National Institute of Health (NIH), Islamabad, Pakistan. Five animals were housed per group and placed in a controlled temperature and humidity-controlled room (22 °C and 66 ± 5%, respectively) in a 12 h light–dark cycle and provided with water and food ad libitum. Ethical approval was taken from the bio-ethical committee of Quaid-I-Azam University (Approval No. BEC-FBS-QAU2018-119) and all protocols were conducted following the Ethical Guide to the Code of Practice for the Housing and Care of Animals Act 1986 (ARRIVE (Animal Research: Reporting In Vivo Experiments) guidelines). The anti-inflammatory activity of the synthesized compounds was evaluated by using the carrageenan-induced rat paw edema assay. To determine the dose response of tetrahydroquinoline derivatives, animals were first given a dose of 0.1, 1 and 10 mg/kg against 100 µL carrageenan (1% solution in normal saline)/paw. Treatment was given 60 min before carrageenan injection. Readings were taken at 4 h post carrageenan injection. The in vivo anti-inflammatory activity was performed following the procedure described by Koksal, et al. in 2017. Paw edema was induced by injecting 100 µL of 1% sterile carrageenan solution into the right hind paw of mice. Synthesized compounds (10 mg/kg), vehicle (saline with 2% DMSO) and drug (acetylsalicylic acid, ASA 10 mg/kg) were administered to the mice orally by gastric intubation 60 min before injecting carrageenan into the right hind paw. The decrease in edema was measured by vernier calipers every 2 h.
On the technique in general: In the carrageenan paw model, swelling and tenderness develop within hours.

Data set [2] in a line: DPPH free radical scavenging assay. Conditions: mean ± SEM, n = 3; for IC50 (DPPH radical scavenging): concentration to scavenge 50% of the DPPH radicals. As for the experimental part:
The % free radical scavenging activity (%FRSA) of the synthetic compounds was evaluated by the discoloration of an unstable DPPH reagent to the stable yellow-colored 2,2-diphenyl-1-picrylhydrazine molecule by accepting one electron from a donor antioxidant; the mechanism is shown in Scheme 2.
The % FRSA (free radical scavenging activity) of the synthetic compounds was determined by using the method of Tai et al. with slight modifications. The antioxidant potential was determined by detecting the capacity of the synthetic compounds to quench the DPPH free radicals. The synthetic compounds were taken in a 96-well plate at three-fold concentrations of 200 µg/mL, 66.6 µg/mL, 22.2 µg/mL and 7.4 µg/mL. DPPH free radicals were added to entire wells to make up the volume up to 200 µL. DMSO and ascorbic acid were taken as negative and positive controls, respectively. The absorbance was taken at 630nm using a microplate reader (ELx800 BioTek). The percentage of scavenging activity was calculated by the given formula:% scavenging activity = (1 − Abs/Abc) × 100
Abs = sample’s absorbance; Abc = control’s absorbance.
Background: Loss of DPPH colour is used to gauge radical scavenging.

Data set [3] has as its system NO generated by LPS-induced macrophages. The data set can be described thus: Nitric oxide assay (Griess) in LPS-induced macrophages. The settings on record: for activity at 1 µM / activity at 10 µM / activity at 50 µM / activity at 100 µM: 18 h, LPS 1 µg/mL, read-out: % NO Production (Mean ± SEM). The format is cell-based, murine. As for the experimental part: A Griess reagent, a spectrophotometric determination of nitrite level, was carried out to measure the nitrite level in the conditioned medium of macrophages treated with lipopolysaccharide (LPS). Sodium nitrite (NaNO2) was used as a standard compound for the standard curve (Figure 8). The NO concentrations were obtained using the standard curve equation: y = 0.0083x + 0.0017, R^2 = 0.9999, where y is the absorbance at 540 nm and x is the NO concentration in µM. The inhibitory activity of the tested compounds towards NO generated by LPS-induced macrophages was obtained from the calculated value of x.
The anti-inflammatory effect of the synthesized compounds in murine macrophages was evaluated by using the Griess reaction method, described previously. In brief, 1 × 10^6 were plated in a 96-well plate and incubated in a 5% CO2 incubator at 37 °C for 24 h, pre-treated with different concentrations (100 µM, 50 µM, 10 µM and 1 µM) of synthetic compounds for another 2 h and challenged with LPS (1 µg/mL) for an additional 18 h. Equal volumes of Griess reagent (1% sulphanilamide in 50% phosphoric acid and 0.1% naphthyl ethylenediamine dihydrochloride in distilled water and vortexed) and culture medium were mixed and the absorbance was taken at 540 nm. Lipopolysaccharide (LPS) was taken as a blank and piroxicam was taken as a positive control. A t-test was applied to determine the significance of the results.

The test system of another data set is brine shrimp nauplii. The data set can be described thus: Brine shrimp lethality bioassay. In kind it is in vivo. The settings on record: 24 h, n = 3. As to the method: Brine shrimp eggs were hatched in a shallow rectangular plastic dish and filled with artificial seawater, which was prepared with a commercial salt mixture. In a 96-well plate, 150 µL of artificial seawater was added and 10 nauplii were added into this. Test compounds (400, 200, 100 and 50 µg/mL) were added into each well and the final volume was made up by adding the artificial seawater. The well plate was left uncovered under a lamp. The number of surviving shrimps were counted and recorded after 24 h. The test was repeated in triplicate. […] The percentage mortality (%M) was also calculated by dividing the number of dead nauplii by the total number and then multiplied by 100.

Data set [4] in a line: MTT cytotoxicity against raw macrophages. The format is cell-based, albino rats. The settings on record: albino, rat; for viability at 24 h, 1 µM / viability at 24 h, 10 µM / viability at 24 h, 50 µM / viability at 24 h, 100 µM: peritoneal macrophages (raw macrophages), raw macrophages, MTT, read-out: % Cell Viability; for IC50 at 24 h: primary peritoneal macrophages, mean ± SEM, n = 3. As for the experimental part: The % cell viability of the synthetic library was evaluated in vitro by measuring the mitochondrial dehydrogenase activity (MTT test) on raw macrophages.
The cytotoxic potential was assessed by using an MTT 3-(4,5-dimethyl thiazole-2-yl)-2,5- diphenyl tetrazolium bromide assay. Briefly, macrophages were extracted from the peritoneal cavity of albino rats and plated at a density of 1 × 10^6 per well in a 96-well plate and incubated in a 5% CO2 incubator at 37 °C for 24 h. The cells were treated with various concentrations of the test compounds (100 µM, 50 µM, 10 µM and 1 µM) or vehicle alone. The test compounds were first dissolved in DMSO to make a 100 mM stock solution and then further dilutions were made from this stock solution. After 24 h of incubation, 20 µL of MTT (1 mg/mL in normal saline) was added into each well and incubated under the same conditions for 2 h. Mitochondrial succinate dehydrogenase converted MTT in live cells into purple formazan crystals. The formazan crystals were then solubilized in 100 µL DMSO, and the absorbance was measured at 570 nm. The % cell viability was calculated by the following formula; % cell viability = (abssample − absblank)/(abscontrol − absblank) × 100

The mark [5] stands for this setting: 0 h after carrageenan injection.
[6] abbreviates: 2 h after carrageenan injection.
Where [7] appears, read: 4 h after carrageenan injection.
Where [8] appears, read: 6 h after carrageenan injection.
The mark [9] stands for this setting: Mus musculus, Macrophage, 50 µM.

The term viability denotes a per cent measure of how many cells are alive, often set against a control. By IC50 is commonly meant the concentration needed to halve the response being measured. With `c1ccc2c(c1)CCCN2CN1CCOCC1` [SF2, 4-((3,4-Dihydroquinolin—1(2H)-yl)methyl) morpholine], the “% inhibition of α-amylase enzyme” value in the data set with α-amylase enzyme was 79.97%. For the same molecule, the Paw thickness in data set [1] (setting [5]) worked out at 2.05 ± 0.05; in data set [1] (setting [6]) it was 2.11 ± 0.06; in data set [1] (setting [7]) it was 2.17 ± 0.03; in data set [1] (setting [8]), 2.23 ± 0.07. For the same molecule, the “% DPPH Scavenging Activity” value in data set [2] (7.4 µg/mL) was found to be 17.44 ± 0.26%; in data set [2] (22.22 µg/mL), 36.61 ± 0.22%; in data set [2] (66.66 µg/mL), 58.39 ± 0.27%; in data set [2] (200 µg/mL), 71.85 ± 0.27%. In data set [2], the “IC50 (DPPH radical scavenging)” value is given as 42.55 ± 0.36 µg/mL (≈ 183 µM). The activity at 1 µM in data set [3] (Mus musculus, Macrophage, 1 µM) was 32.2 ± 0.46%. The activity at 10 µM in data set [3] (Mus musculus, Macrophage) is 27.1 ± 0.36%. In data set [3] (setting [9]), the activity at 50 µM amounted to 22.1 ± 0.33%. In data set [3] (Mus musculus, Macrophage), the activity at 100 µM turned out to be 15.3 ± 0.29%. Moreover, the “LD50 ± SEM (brine shrimp lethality)” value in the data set with brine shrimp nauplii is 141.4 ± 2.1 µg/mL. Further, in data set [4], the viability at 24 h, 1 µM turned out to be 76 ± 0.46%. The viability at 24 h, 10 µM in data set [4] worked out at 70 ± 0.91%. Moreover, in data set [4], the viability at 24 h, 50 µM is 60 ± 0.91%. In addition, the viability at 24 h, 100 µM in data set [4] came out at 50 ± 1.52%. In data set [4], this molecule returned an IC50 at 24 h of 26.8 ± 0.3 µM.

Take `c1ccc2c(c1)CCCN2CN1CCCC1` [SF3, 1-(Pyrollidin-1-ylmethyl) -1,2,3,4-tetrahydroquinoline]: the Paw thickness in data set [1] (setting [5]) is recorded as 2.05 ± 0.06; in data set [1] (setting [6]), 2.16 ± 0.05; in data set [1] (setting [7]) it was 2.22 ± 0.02; in data set [1] (setting [8]) it was 2.28 ± 0.07. Moreover, the “% DPPH Scavenging Activity” value in data set [2] (7.4 µg/mL) was determined as 3.76 ± 0.125%; in data set [2] (22.22 µg/mL) it was 9.85 ± 0.18%; in data set [2] (66.66 µg/mL), 18.32 ± 0.91%; in data set [2] (200 µg/mL), 27.19 ± 0.31%. Moreover, the “IC50 (DPPH radical scavenging)” value in data set [2] was found to be 52.75 ± 0.28 µg/mL (≈ 244 µM). Further, in data set [3] (Mus musculus, Macrophage, 1 µM), the activity at 1 µM is 33.2 ± 0.47%. For the same molecule, in data set [3] (Mus musculus, Macrophage), the activity at 10 µM stood at 29.6 ± 0.42%. For the same molecule, the activity at 50 µM in data set [3] (setting [9]) was found to be 23.8 ± 0.39%. For the same molecule, the activity at 100 µM in data set [3] (Mus musculus, Macrophage) amounted to 19.7 ± 0.37%. Also, the “LD50 ± SEM (brine shrimp lethality)” value with brine shrimp nauplii came to 102 ± 1.98 µg/mL. For the same molecule, in data set [4], the viability at 24 h, 1 µM stood at 83 ± 0.63%. In addition, the viability at 24 h, 10 µM in data set [4] turned out to be 78 ± 0.74%. Besides, the viability at 24 h, 50 µM in data set [4] was 72 ± 1.34%. In data set [4], the viability at 24 h, 100 µM was 41 ± 1.07%. The molecule further showed an IC50 at 24 h in data set [4] of 29.1 ± 0.5 µM.

A word on the inhibition: it is the share of the control response that was lost under treatment. On to `CC(=O)N(CN1CCCc2ccccc21)c1ccc(O)cc1` [SF13, N-((3,4-dihydroquinolin-1(2H)-yl)methyl)-N-(4-hydroxyphenyl) acetamide], for which, in the data set on α-amylase enzyme, the “% inhibition of α-amylase enzyme” value is given as 10.51%. Also, the Paw thickness is reported as 2.04 ± 0.07 in data set [1] (setting [5]), 2.18 ± 0.03 in data set [1] (setting [6]), 2.26 ± 0.06 in data set [1] (setting [7]) and 2.31 ± 0.07 in data set [1] (setting [8]). In addition, the “% DPPH Scavenging Activity” value in data set [2] (7.4 µg/mL) worked out at 1.98 ± 0.20%; in data set [2] (22.22 µg/mL), 4.44 ± 0.18%; in data set [2] (66.66 µg/mL), 11.78 ± 0.15 s %; in data set [2] (200 µg/mL) it was 19.34 ± 0.34%. Also, in data set [3] (50 µM), the “NO level scavenged (maximum)” value turned out to be 85%. The activity at 1 µM in data set [3] (Mus musculus, Macrophage, 1 µM) turned out to be 25.1 ± 0.59%. In addition, the activity at 10 µM in data set [3] (Mus musculus, Macrophage) was 22.2 ± 0.52%. Also, the activity at 50 µM in data set [3] (setting [9]) is 15.6 ± 0.47%. Further, in data set [3] (Mus musculus, Macrophage), the activity at 100 µM amounted to 14.5 ± 0.44%. In addition, the inhibition at 1 µM in data set [3] (Mus musculus, Macrophage, 1 µM, read-out: NO maximum inhibition) was found to be 75%. The “LD50 ± SEM (brine shrimp lethality)” value in the data set with brine shrimp nauplii stood at 204 ± 1.67 µg/mL. Further, in data set [4], the viability at 24 h, 1 µM came out at 85 ± 0.93%. In addition, in data set [4], the viability at 24 h, 10 µM was 82 ± 0.66%. In data set [4], the viability at 24 h, 50 µM was found to be 73 ± 1.01%. Also, in data set [4], the viability at 24 h, 100 µM worked out at 60 ± 1.24%. The IC50 at 24 h in data set [4] was found to be 41.4 ± 0.69 µM.
